Test results as given in ChEMBL document CHEMBL1139752, “New rifabutin analogs: synthesis and biological activity against Mycobacterium tuberculosis” (2006).
≈ marks a conversion by molar mass, not a printed value.

Columns and labels:
Type in all cases: functional
[1] = tested on: Mycobacterium tuberculosis; experiment: Antimycobacterial activity against rifampicin and rifabutin resistant Mycobacterium tuberculosis
[2] = tested on: Mycobacterium tuberculosis; experiment: Antimycobacterial activity against isoniazid resistant Mycobacterium tuberculosis ATCC 35822
[3] = tested on: Mycobacterium tuberculosis; experiment: Antimycobacterial activity against rifampicin and rifabutin resistant Mycobacterium tuberculosis ATCC 35838
[4] = tested on: Mycobacterium tuberculosis; experiment: Antimycobacterial activity against ethambutol resistant Mycobacterium tuberculosis ATCC 35837
[5] = tested on: Mycobacterium tuberculosis; experiment: Antimycobacterial activity against streptomycin resistant Mycobacterium tuberculosis ATCC 35820

Row | SMILES | MIC [1] | MIC [2] | MIC [3] | MIC [4] | MIC [5]
1 | C=CCN1[C@@H](c2ccccc2)C[C@@]2(C[C@H]1c1ccccc1)N=C1C(=C3NC(=O)/C(C)=C\C=C\[C@H](C)[C@H](O)[C@@H](C)[C@H](O)[C@H](C)[C@H](OC(C)=O)[C@H](C)[C@@H](OC)/C=C/O[C@@]4(C)Oc5c(C)c(O)c(c1c5C4=O)C3=O)N2 | > 1 µg/mL | 0.02 µg/mL (≈ 0.0203 µM) | > 1 µg/mL | 0.02 µg/mL (≈ 0.0203 µM) | 0.02 µg/mL (≈ 0.0203 µM)
2 | CO[C@H]1/C=C/O[C@@]2(C)Oc3c(C)c(O)c4c(O)c(c(/C=N/N5CCN(C)CC5)c(O)c4c3C2=O)NC(=O)/C(C)=C\C=C\[C@H](C)[C@H](O)[C@@H](C)[C@@H](O)[C@@H](C)[C@H](OC(C)=O)[C@@H]1C [RIFAMPIN] | > 5 µg/mL | 0.02 µg/mL (≈ 0.0243 µM) | > 5 µg/mL | 0.02 µg/mL (≈ 0.0243 µM) | 0.02 µg/mL (≈ 0.0243 µM)
3 | CCCCN1[C@@H](c2ccccc2)C[C@@]2(C[C@H]1c1ccccc1)N=C1C(=C3NC(=O)/C(C)=C\C=C\[C@H](C)[C@H](O)[C@@H](C)[C@H](O)[C@H](C)[C@H](OC(C)=O)[C@H](C)[C@@H](OC)/C=C/O[C@@]4(C)Oc5c(C)c(O)c(c1c5C4=O)C3=O)N2 | > 1 µg/mL | 0.02 µg/mL (≈ 0.02 µM) | 1 µg/mL (≈ 1 µM) | 0.02 µg/mL (≈ 0.02 µM) | 0.02 µg/mL (≈ 0.02 µM)
4 | CO[C@H]1/C=C/O[C@@]2(C)Oc3c(C)c(O)c4c(c3C2=O)C2=N[C@@]3(C[C@@H](c5ccccc5)N[C@@H](c5ccccc5)C3)NC2=C(NC(=O)/C(C)=C\C=C\[C@H](C)[C@H](O)[C@@H](C)[C@H](O)[C@H](C)[C@H](OC(C)=O)[C@@H]1C)C4=O | 0.3 µg/mL (≈ 0.318 µM) | 0.02 µg/mL (≈ 0.0212 µM) | 0.5 µg/mL (≈ 0.53 µM) | 0.02 µg/mL (≈ 0.0212 µM) | 0.02 µg/mL (≈ 0.0212 µM)
5 | C=CCCN1[C@@H](c2ccccc2)C[C@@]2(C[C@H]1c1ccccc1)N=C1C(=C3NC(=O)/C(C)=C\C=C\[C@H](C)[C@H](O)[C@@H](C)[C@H](O)[C@H](C)[C@H](OC(C)=O)[C@H](C)[C@@H](OC)/C=C/O[C@@]4(C)Oc5c(C)c(O)c(c1c5C4=O)C3=O)N2 | > 1 µg/mL | 0.02 µg/mL (≈ 0.0201 µM) | > 1 µg/mL | 0.02 µg/mL (≈ 0.0201 µM) | 0.02 µg/mL (≈ 0.0201 µM)
6 | CO[C@H]1/C=C/O[C@@]2(C)Oc3c(C)c(O)c4c(c3C2=O)C2=N[C@@]3(C[C@@H](c5ccc(F)cc5)N[C@@H](c5ccc(F)cc5)C3)NC2=C(NC(=O)/C(C)=C\C=C\[C@H](C)[C@H](O)[C@@H](C)[C@H](O)[C@H](C)[C@H](OC(C)=O)[C@@H]1C)C4=O | 0.3 µg/mL (≈ 0.306 µM) | 0.02 µg/mL (≈ 0.0204 µM) | 0.5 µg/mL (≈ 0.511 µM) | 0.02 µg/mL (≈ 0.0204 µM) | 0.02 µg/mL (≈ 0.0204 µM)
7 | COc1ccc([C@@H]2C[C@]3(C[C@H](c4ccc(OC)cc4)N2)N=C2C(=C4NC(=O)/C(C)=C\C=C\[C@H](C)[C@H](O)[C@@H](C)[C@H](O)[C@H](C)[C@H](OC(C)=O)[C@H](C)[C@@H](OC)/C=C/O[C@@]5(C)Oc6c(C)c(O)c(c2c6C5=O)C4=O)N3)cc1 | > 1 µg/mL | 0.02 µg/mL (≈ 0.0199 µM) | 1 µg/mL (≈ 0.997 µM) | 0.02 µg/mL (≈ 0.0199 µM) | 0.02 µg/mL (≈ 0.0199 µM)
8 | CO[C@H]1/C=C/O[C@@]2(C)Oc3c(C)c(O)c4c(c3C2=O)C2=N[C@]3(C[C@@H](c5ccccc5)N[C@@H](c5ccccc5)C3)NC2=C(NC(=O)/C(C)=C\C=C\[C@H](C)[C@H](O)[C@@H](C)[C@H](O)[C@H](C)[C@H](OC(C)=O)[C@@H]1C)C4=O | > 1 µg/mL | 0.02 µg/mL (≈ 0.0212 µM) | 1 µg/mL (≈ 1.06 µM) | 0.02 µg/mL (≈ 0.0212 µM) | 0.02 µg/mL (≈ 0.0212 µM)
9 | CO[C@H]1/C=C/O[C@@]2(C)Oc3c(C)c(O)c4c(c3C2=O)C2=NC3(CCN(CC(C)C)CC3)NC2=C(NC(=O)/C(C)=C\C=C\[C@H](C)[C@H](O)[C@@H](C)[C@@H](O)[C@@H](C)[C@H](OC(C)=O)[C@@H]1C)C4=O [RIFABUTIN] | > 5 µg/mL | 0.02 µg/mL (≈ 0.0236 µM) | > 5 µg/mL | 0.02 µg/mL (≈ 0.0236 µM) | 0.02 µg/mL (≈ 0.0236 µM)
